Source: article PMC10316653 (iScience, 2023)
Values belong to the compound of their own block, whether it stands above or below them. *1 amine or outer side, *2 acyl side, *3 side chain or, on linkers, in order; H or OH if unused. Where a SMILES comes first, the peptide text is derived from it. Bridges are numbered along the chain shown (N, C = ends). [ ]: non-standard residue; d: D form. X1 = CC(=O)NC(C(=O)OC(C(C)C)C(N[*:1])C(=O)[*:2])C(O)C(C)C; PhLac = O=C(O)[CH](O)Cc1ccccc1; NMeT = CN[CH](C(=O)O)[CH](C)O; NMeA = CN[CH](C)C(=O)O; NMeDha = C=C(NC)C(=O)O

Experiments:
[1] = molecular target: T1, A2BAR (Homo sapiens, UniProt P29275); experiment: cAMP accumulation assay in naive HEK293 cells; assay type: cell-based; settings: for effect on PKC (PMA)-induced enhancement of BAY-induced cAMP accumulation: naive HEK293 cells, inhibitor 1 μM, PMA 1 μM, BAY 10 μM
T1 sequence (P29275 1-332): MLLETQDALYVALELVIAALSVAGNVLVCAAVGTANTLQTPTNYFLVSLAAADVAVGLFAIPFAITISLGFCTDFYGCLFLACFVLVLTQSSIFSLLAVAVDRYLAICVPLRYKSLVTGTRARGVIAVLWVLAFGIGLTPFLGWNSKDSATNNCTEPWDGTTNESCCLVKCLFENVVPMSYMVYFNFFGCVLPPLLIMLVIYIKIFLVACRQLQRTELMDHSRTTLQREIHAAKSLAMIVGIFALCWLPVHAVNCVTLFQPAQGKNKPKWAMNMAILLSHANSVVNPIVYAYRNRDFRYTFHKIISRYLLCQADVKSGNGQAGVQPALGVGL

[2] = system: ERK1/2; experiment: ERK1/2 activity assay in H9C2 cells; assay type: cell-based, rat; settings: 1 μM added 20 min before PMA 1 μM
[3] = molecular target: T1, A2BAR; experiment: Intracellular calcium mobilization assay in HEK293-A2B cells; assay type: cell-based; settings: 1 μM pretreatment 20 min
[4] = molecular target: T2, A2BAR (Rattus norvegicus, UniProt P29276); experiment: cAMP accumulation assay in H9C2 cells endogenously expressing the A2BAR; assay type: cell-based; settings: for effect on PMA-induced cAMP accumulation: naive H9C2 cells, antagonist 1 µM
T2 sequence (P29276 1-332): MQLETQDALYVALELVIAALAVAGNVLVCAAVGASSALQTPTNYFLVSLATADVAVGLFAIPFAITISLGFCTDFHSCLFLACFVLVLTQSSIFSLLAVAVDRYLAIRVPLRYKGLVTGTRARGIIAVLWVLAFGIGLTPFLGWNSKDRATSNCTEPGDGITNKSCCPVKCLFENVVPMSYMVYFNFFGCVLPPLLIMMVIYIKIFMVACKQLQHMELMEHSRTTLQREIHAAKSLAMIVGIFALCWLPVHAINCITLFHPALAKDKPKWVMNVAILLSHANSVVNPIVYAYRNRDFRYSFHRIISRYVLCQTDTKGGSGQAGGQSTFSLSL

[5] = system: H9C2 cells; experiment: Intracellular calcium mobilization assay in H9C2 cells; assay type: cell-based, rat
[6] = molecular target: T1, A2BAR; experiment: cAMP accumulation assay in HEK293-A2B cells; assay type: cell-based; settings: HEK293-A2B cells
[7] = molecular target: T1, A2BAR; experiment: Radioligand binding to membranes from HEK293-A2B cells; settings: membranes from HEK293-A2B cells, 1 μM
[8] = system: PKCβI; settings: reported selectivity profile, ref not given; cited from earlier work
[9] = system: PKCα; settings: reported selectivity profile, ref not given; cited from earlier work

SMILES: CC(C)[C@H]1C(=O)N[C@H](CO)Cc2cc(NC(=O)/C=C/C=C/c3ccc(C(F)(F)F)cc3)ccc2N1C [TPPB]
- effect of pretreatment on BAY-induced cAMP accumulation ([1]; HEK293 cells, TPPB 1 µM 40 min): also enhanced the function of BAY

SMILES: O=c1ccn([C@@H]2O[C@H](COP(=O)(O)OP(=O)(O)OP(=O)(O)O)[C@@H](O)[C@H]2O)c(=O)[nH]1 [UTP]
- induction of calcium mobilization [5]: induced a robust calcium response

SMILES: N#Cc1c(N)nc(SCC(N)=O)c(C#N)c1-c1ccc(OCC2CC2)cc1 [BAY]
- induction of cAMP accumulation ([4]; H9C2 cells, agonist 20 min): induced robust cAMP accumulation

SMILES: C=C1C(=O)NC(C)C(=O)N(C)C(C)C(=O)NC(C(OC(=O)C(NC(C)=O)C(O)C(C)C)C(C)C)C(=O)N(C)C(C(C)OC)C(=O)OC(C)C(NC(C)=O)C(=O)OC(Cc2ccccc2)C(=O)N1C (stereo not drawn) [YM254890] (Ac-T[PhLac][NMeDha]A[NMeA][X1][NMeT](Me); ester 1-C; configuration not given here)
- inhibition of UTP-induced calcium response ([5]; 1 μM pretreatment 20 min): completely inhibited

More lines, main results first:

- effect on NECA-induced intracellular calcium mobilization [3]: inhibited
- effect on PMA-induced cAMP accumulation [4]: inhibited
SMILES: CCCn1c(=O)[nH]c2nc(-c3ccc(S(=O)(=O)N4CCN(c5ccc(Cl)cc5)CC4)cc3)[nH]c2c1=O [PSB603]
- effect on PMA-induced ERK1/2 phosphorylation [2]: not affected

- KB against BAY more potent than IC50 against PKC [6]: over 100 fold
- displacement of specific binding of [3H]NECA (25 nM) [7]: 100%
- effect on PMA-induced cAMP accumulation [4]: inhibited
SMILES: CCCn1c(=O)c2[nH]c(-c3ccc(OCC(=O)Nc4ccc(C#N)cc4)cc3)nc2n(CCC)c1=O [MRS1754]

- effect on PKC (PMA)-induced enhancement of BAY-induced cAMP accumulation [1]: modest but significant inhibition
- effect on PKC-induced A2BAR activation (cAMP) ([6]; inhibitor 30 nM): lack of inhibition
SMILES: Cn1c2ccccc2c2c3c(c4c5ccccc5n(CCC#N)c4c21)CNC3=O [GO6976]
- IC50 [8]: 6.2 nM
- IC50 [9]: 2.3 nM

- effect on PKC (PMA)-induced enhancement of BAY-induced cAMP accumulation [1]: blocked PKC-induced enhancement
SMILES: CN(C)C[C@H]1CCn2c(c(C3=C(c4cn(C)c5ccccc45)C(=O)NC3=O)c3ccccc32)C1 [RO320432]
